Assay results taken from patent US20070154393A1, “Bioassay for volatile low molecular weight insecticides and methods of use” (priority 2005, published 2007).
Where two headings read alike, the source gives them in different places.

How the values were obtained:
[1] = test system: metabolically-resistant Hikone-R strain of Drosophila (elevated cytochrome P450); assay type: in vivo; details: Hikone-R, 24 hr
Experimental: (§1) Four Drosophila strains were used, all obtained from the Bloomington Drosophila Stock Center (Indiana University; Bloomington, Ind.). The Canton-S strain was used as the insecticide-susceptible standard. […] Two resistant neurological-mutant strains were also tested. […] Flies were reared in 100-ml vials capped with acetate plugs (Fisher Scientific; Suwanee, Ga.) on a commercial diet (JAZZ-MIX; Fisher Scientific). […] Mixed-sex adults, less than 1-wk old, were used in bioassays.
(§2) All volatile insecticide stocks were prepared at 100 μg/μl in analytical grade acetone. Rather than weigh the highly volatile liquid insecticides (i.e., all compounds except benzothiophene), weight was determined based on the density-volume relationship of each compound. […] The insecticide synergists PBO (piperonyl butoxide) and DEF (SSS-tributyl-phosphoro-trithioate) were obtained from Fluka Chemical Co. (Basel, Switzerland) and Mobay Chemical Co. (Kansas City, Mo.). […] Synergist stocks were prepared at 100 μg/ml in analytical grade acetone.
(§3) Briefly, bioassays took place in 0.5-l glass jars with metal lids. Mixed-sex flies were isolated from lab colonies and placed in 4-ml dram vials in groups of ten, along with a dried piece of laboratory diet. The dram vials were capped with open-top septum caps that were covered with fine mesh (held in place by non-toxic glue). For bioassays, the assembled dram vials were placed into the 0.5-l jars along with a folded filter paper “tent” (Whatman #1; Vineland, N.J.). The filter paper was treated with either an insecticide dilution or acetone, the jar was sealed with the metal lid, and the bioassay proceeded for 24-hr at room temperature. Mortality was scored based on a complete lack of movement by the flies. Four concentrations plus an acetone control were tested for all insecticides. Between five and ten replicates were performed for each concentration range on each strain-insecticide combination. Synergist bioassays were performed with a slight modification. Synergist stocks were applied to dram vials at 100 μl per vial to provide assay concentrations of 10 μg per vial. […] After treatment, vials were held at an angle in a fume hood and rotated ¼-turn each minute until the acetone evaporated. Flies and diet were added as above and held for 1-hr. Assays were initiated, run, and scored as above.
(§4) Probit analysis was performed using PROC PROBIT in the SAS software package (SAS Institute; Cary, N.C.). If control mortality ever exceeded 10% in a given replicate, that replicate was discarded.

[2] = test system: para-ts1 (para-R) strain of Drosophila (sodium channel point mutation); assay type: in vivo; details: for Slope ± Std. Error (probit mortality line): Table 2, para-R, 24 hr
Experimental: as §1, §2, §3, §4

[3] = test system: Rd1 (Rdl-R) strain of Drosophila (GABA-gated chloride channel point mutation); assay type: in vivo, Drosophila melanogaster; details: Table 2; Rdl-R, 24 hr
Source text: Four Drosophila strains were used, all obtained from the Bloomington Drosophila Stock Center (Indiana University; Bloomington, Ind.). The Canton-S strain was used as the insecticide-susceptible standard. The Hikone-R strain is metabolically-resistant with elevated cytochrome P450 levels (Waters et al., 1984; Sundseth et al., 1989; Le Goff et al., 2003; Festucci-Buselli et al., 2005). Hikone-R is resistant to a number of insecticides, including malathion, DDT and neonicotinoids (Sundseth et al., 1989; Daborn et al., 2001). Two resistant neurological-mutant strains were also tested. […] Flies were reared in 100-ml vials capped with acetate plugs (Fisher Scientific; Suwanee, Ga.) on a commercial diet (JAZZ-MIX; Fisher Scientific). Flies were reared on a 12:12 photocycle at 24° C. and 60% relative humidity. Mixed-sex adults, less than 1-wk old, were used in bioassays.
All experimental materials were purchased from Sigma-Aldrich-Fluka (Milwaukee, Wis.) and were of 99% purity or greater. […] All volatile insecticide stocks were prepared at 100 μg/μl in analytical grade acetone. Rather than weigh the highly volatile liquid insecticides (i.e., all compounds except benzothiophene), weight was determined based on the density-volume relationship of each compound. Four serial dilutions were prepared and tested for each insecticide as described previously (Scharf et al., 2006). The insecticide synergists PBO (piperonyl butoxide) and DEF (SSS-tributyl-phosphoro-trithioate) were obtained from Fluka Chemical Co. (Basel, Switzerland) and Mobay Chemical Co. (Kansas City, Mo.). Both synergists were >95% purity. Synergist stocks were prepared at 100 μg/ml in analytical grade acetone.
Volatility bioassays were conducted exactly as described in a previous report (Scharf et al., 2006). Briefly, bioassays took place in 0.5-l glass jars with metal lids. Mixed-sex flies were isolated from lab colonies and placed in 4-ml dram vials in groups of ten, along with a dried piece of laboratory diet. The dram vials were capped with open-top septum caps that were covered with fine mesh (held in place by non-toxic glue). For bioassays, the assembled dram vials were placed into the 0.5-l jars along with a folded filter paper “tent” (Whatman #1; Vineland, N.J.). The filter paper was treated with either an insecticide dilution or acetone, the jar was sealed with the metal lid, and the bioassay proceeded for 24-hr at room temperature. Mortality was scored based on a complete lack of movement by the flies. Four concentrations plus an acetone control were tested for all insecticides. Between five and ten replicates were performed for each concentration range on each strain-insecticide combination. Synergist bioassays were performed with a slight modification. Synergist stocks were applied to dram vials at 100 μl per vial to provide assay concentrations of 10 μg per vial. […] After treatment, vials were held at an angle in a fume hood and rotated ¼-turn each minute until the acetone evaporated. Flies and diet were added as above and held for 1-hr. Assays were initiated, run, and scored as above.
Probit analysis was performed using PROC PROBIT in the SAS software package (SAS Institute; Cary, N.C.). If control mortality ever exceeded 10% in a given replicate, that replicate was discarded. Toxicity and synergist ratios at LC50 were compared statistically using the calculation described by Robertson and Preisler (1992). Using this procedure, ratios with 95% confidence intervals were calculated using a spreadsheet-based program. With this calculation, if confidence intervals include 1.0 then ratios are considered non-significant (p>0.05; Robertson and Preisler, 1992).

Substance | Slope ± Std. Error (probit mortality line) ([1]; Table 2) | Slope ± Std. Error (probit mortality line) ([1]; Table 3, no synergist) | Slope ± Std. Error (probit mortality line) [2] | Slope ± Std. Error (probit mortality line) [3] | response of para-ts1 relative to Canton-S (LC50 ratio, FIG. 7B), in words ([2]; significance at p<0.05, method of Robertson and Preisler)
methyl formate | 2.72 ± 0.68 | 2.72 ± 0.68 | 8.84 ± 1.46 | 9.41 ± 2.14 | 
ethyl formate | 12.50 ± 7.10 | 12.50 ± 7.10 | 7.11 ± 1.34 | 6.38 ± 1.91 | non-significant tolerance
